pIC50: −log10 of the molar value.
Each molecule was assayed against phosphorylated active hERK2 enzyme (Homo sapiens (Human), UniProt P28482) (assay: Active Human ERK2 (hERK2) Activity Assay (IMAP-FP)). Settings: Table 5, 0.5 nM hERK2, 30 μM ATP, 10 point titration, read-out: AERK2 IC50.
Type: biochemical
Summary of the method: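 IMAP detection beads in buffer with 24 mM NaCl stopped the reaction, and fluorescence polarization was read after 60 min binding.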

Sequence of phosphorylated active hERK2 enzyme (P28482 whole entry): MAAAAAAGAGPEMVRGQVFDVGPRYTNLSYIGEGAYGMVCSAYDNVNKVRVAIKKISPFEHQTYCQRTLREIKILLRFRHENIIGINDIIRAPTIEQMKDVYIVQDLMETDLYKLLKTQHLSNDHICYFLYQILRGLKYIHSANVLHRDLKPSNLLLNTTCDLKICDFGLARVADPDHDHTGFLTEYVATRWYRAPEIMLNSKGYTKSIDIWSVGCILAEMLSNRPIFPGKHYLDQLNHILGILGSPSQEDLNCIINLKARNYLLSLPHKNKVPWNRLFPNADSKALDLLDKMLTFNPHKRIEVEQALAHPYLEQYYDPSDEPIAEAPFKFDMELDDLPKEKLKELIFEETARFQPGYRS

pIC50 | SMILES
9.70 | CN1C[C@@H](NC(=O)Nc2cc3[nH]nc(N4CCOCC4)c3cn2)[C@H](c2ccccc2)C1 [Example 42, 1-[(3S,4R)-1-methyl-4-phenylpyrrolidin-3-yl]-3-(3-morpholin-4-yl-1H-pyrazolo[4,3-c]pyridin-6-yl)urea]

Same assay, conditions: Table 6, 0.5 nM hERK2, 30 μM ATP, 10 point titration, read-out: AERK2 IC50

SMILES | pIC50
CC1=NOC(CNc2n[nH]c3cc(NC(=O)N[C@H](C)c4ccccc4)ncc23)C1 (stereo partly drawn) [Example 173, 1-(3-{[(3-methyl-4,5-dihydro-isoxazol-5-yl)-methyl]amino}-1H-pyrazolo[4,3-c]-pyridin-6-yl)-3-[(1R)-1-phenylethyl]urea] | 8.24
C[C@@H](NC(=O)Nc1cc2[nH]nc(NCc3ccccc3)c2cn1)c1ccccc1 [Example 178, 1-[3-(benzyl-amino)-1H-pyrazolo[4,3-c]-pyridin-6-yl]-3-1-[(1R)-1-phenylethyl]urea] | 8.34
C[C@@H](NC(=O)Nc1cc2[nH]nc(NC(=O)C3CCCC3)c2cn1)c1ccccc1 [Example 205, N-[6-({[(1R)-1-phenylethyl]-carbamoyl}amino)-1H-pyrazolo[4,3-c]pyridin-3-yl]-cyclopentane-carboxamide] | 8.92
C[C@@H](NC(=O)Nc1cc2[nH]nc(NCC3CCNCC3)c2cn1)c1ccccc1 [Example 165, 1-[(1R)-1-phenylethyl]-3-{3-[(piperidin-4-ylmethyl)amino]-1H-pyrazolo[4,3-c]pyridin-6-yl}urea] | 7.30
Cc1cc(Nc2n[nH]c3cc(NC(=O)N[C@H](C)c4ccccc4)ncc23)ccn1 [Example 62, 1-{3-[(2-methylpyridin-4-yl)amino]-1H-pyrazolo[4,3-c]pyridin-6-yl}-3-[(1R)-1-phenylethyl]urea] | 7.83
CC(CS(C)(=O)=O)Nc1n[nH]c2cc(NC(=O)N[C@H](C)c3ccccc3)ncc12 (stereo partly drawn) [Example 192, 1-(3-{[1-methyl-2-(methylsulfonyl)-ethyl]amino}-1H-pyrazolo[4,3-c]-pyridin-6-yl)-3-[(1R)-1-phenylethyl]urea] | 7.10
C[C@@H](NC(=O)Nc1cc2[nH]nc(NC(=O)c3cccnc3)c2cn1)c1ccccc1 [Example 211, N-[6-({[(1R)-1-phenylethyl]-carbamoyl}amino)-1H-pyrazolo[4,3-c]pyridin-3-yl]-pyridine-3-carboxamide] | 8.51
C[C@H](O)[C@@H](NC(=O)Nc1cc2[nH]nc(N3CCOCC3)c2cn1)c1ccc(F)cc1 [Example 98, 1-[(1S,2S)-1-(4-fluorophenyl)-2-hydroxypropyl]-3-(3-morpholin-4-yl-1H-pyrazolo[4,3-c]-pyridin-6-yl)urea] | 9.70
C[C@@H](NC(=O)Nc1cc2[nH]nc(NC(=O)CC3CCCC3)c2cn1)c1ccccc1 [Example 210, 2-cyclopentyl-N-[6-({[(1R)-1-phenylethyl]-carbamoyl}amino)-1H-pyrazolo[4,3-c]pyridin-3-yl]-acetamide] | 8.55
C[C@@H](O)[C@@H](NC(=O)Nc1cc2[nH]nc(N3CCOCC3)c2c(CO)n1)c1ccc(F)cc1 [Example 108, 1-[(1S,2R)-1-(4-Fluorophenyl)-2-hydroxypropyl]-3-[4-(hydroxymethyl)-3-morpholin-4-yl-1H-pyrazolo[4,3-c]pyridin-6-yl]urea] | 9.40
C[C@@H](NC(=O)Nc1cc2[nH]nc(NC3CCCC3)c2cn1)c1ccccc1 [Example 186, 1-[3-(cyclopentyl-amino)-1H-pyrazolo[4,3-c]-pyridin-6-yl]-3-[(1R)-1-phenylethyl]urea] | 8.64
C[C@@H](NC(=O)Nc1cc2[nH]nc(N)c2c(CO)n1)c1ccccc1 [Example 68, (R)-1-(3-amino-4-(hydroxymethyl)-1H-pyrazolo[4,3-c]pyridin-6-yl)-3-(1-phenylethyl)urea] | 9.30
CC(C)(O)[C@@H](NC(=O)Nc1cc2[nH]nc(N3CCOCC3)c2c(CO)n1)c1ccccc1 [Example 109, 1-[4-(hydroxymethyl)-3-morpholin-4-yl-1H-pyrazolo[4,3-c]-pyridin-6-yl]-3-[(1S)-2-hydroxy-2-methyl-1-phenylpropyl]urea] | 9.52
CC(C)(O)[C@@H](NC(=O)Nc1cc2[nH]nc(N3CCC3)c2cn1)c1ccc(F)cc1 [Example 100, 1-(3-azetidin-1-yl-1H-pyrazolo[4,3-c]-pyridin-6-yl)-3-[(1S)-1-(4-fluorophenyl)-2-hydroxy-2-methylpropyl]urea] | 8.96
CC(C)(O)[C@@H](NC(=O)Nc1cc2[nH]nc(NC(=O)N3CC(F)(F)C3)c2cn1)c1ccc(F)cc1 [Example 129, 3,3-difluoro-N-[6-({[(1S)-1-(4-fluorophenyl)-2-hydroxy-2-methylpropyl]-carbamoyl}amino)-1H-pyrazolo[4,3-c]pyridin-3-yl]-azetidine-1-carboxamide] | 9.40
COC[C@@H](NC(=O)Nc1cc2[nH]nc(Nc3ccccc3OC)c2cn1)c1ccccc1 [Example 122, 1-{3-[(2-methoxyphenyl)-amino]-1H-pyrazolo[4,3-c]pyridin-6-yl}-3-[(1S)-2-methoxy-1-phenylethyl]urea] | 8.08
C[C@@H](NC(=O)Nc1cc2[nH]nc(NC3CCC3)c2cn1)c1ccccc1 [Example 185, 1-[3-(cyclobutylamino)-1H-pyrazolo[4,3-c]pyridin-6-yl]-3-[(1R)-1-phenylethyl]urea] | 8.82

More lines, now with the values ahead:

pIC50 | SMILES
8.77 | CCNc1n[nH]c2cc(NC(=O)N[C@H](C)c3cccc(F)c3)ncc12 [Example 243, 1-[3-(ethylamino)-1H-pyrazolo[4,3-c]pyridin-6-yl]-3-[(1R)-1-(3-fluorophenyl)-ethyl]urea]
8.47 | C[C@@H](NC(=O)Nc1cc2[nH]nc(N3CC4CCC(C3)O4)c2cn1)c1ccccc1 [Example 453, 1-[3-(8-oxa-3-azabicyclo[3.2.1]-oct-3-yl)-1H-pyrazolo[4,3-c]-pyridin-6-yl]-3-[(1R)-1-phenylethyl]urea]
7.82 | CSC1CCN(c2n[nH]c3cc(NC(=O)N[C@H](C)c4ccccc4)ncc23)CC1 [Example 427, 1-{3-[4-(methylsulfanyl)-piperidin-1-yl]-1H-pyrazolo[4,3-c]-pyridin-6-yl}-3-[(1R)-1-phenylethyl]urea]
8.80 | CC(C)Nc1n[nH]c2cc(NC(=O)N[C@H](C)c3ccc(F)cc3)ncc12 [Example 340, (R)-1-(1-(4-fluorophenyl)ethyl)-3-(3-(isopropyl-amino)-1H-pyrazolo[4,3-c]-pyridin-6-yl)urea]
7.61 | Nc1n[nH]c2cc(NC(=O)NCc3cccc(F)c3)ncc12 [Example 265, 1-(3-amino-1H-pyrazolo[4,3-c]-pyridin-6-yl)-3-(3-fluorobenzyl)urea]
8.59 | COC(=O)Nc1n[nH]c2cc(NC(=O)NC(c3ccc(Cl)c(Cl)c3)c3cnco3)ncc12 (centres unmarked) [Example 392, methyl [6-({[(3,4-dichlorophenyl)(1,3-oxazol-5-yl)-methyl]carbamoyl}amino)-1H-pyrazolo[4,3-c]-pyridin-3-yl]-carbamate]
8.37 | O=C(Nc1cc2[nH]nc(N3CC4CC3CO4)c2cn1)N[C@H](CO)c1ccccc1 (stereo partly drawn) [Example 450, 1-[(1S)-2-hydroxy-1-phenylethyl]-3-[3-(2-oxa-5-azabicyclo[2.2.1]-hept-5-yl)-1H-pyrazolo[4,3-c]-pyridin-6-yl]urea]
9.22 | COC[C@@H](NC(=O)Nc1cc2[nH]nc(NC(C)C(F)(F)F)c2cn1)c1ccccc1 (stereo partly drawn) [Example 417, 1-[(1S)-2-methoxy-1-phenylethyl]-3-{3-[(2,2,2-trifluoro-1-methylethyl)-amino]-1H-pyrazolo[4,3-c]-pyridin-6-yl}urea]
9.00 | COC(=O)Nc1n[nH]c2cc(NC(=O)N[C@@H]3CN(C)C[C@H]3c3ccccc3)ncc12 [Example 291, methyl[6-({[(3S,4R)-1-methyl-4-phenyl-pyrrolidin-3-yl]carbamoyl}-amino)-1H-pyrazolo[4,3-c]pyridin-3-yl]-carbamate]
9.00 | C[C@@H](NC(=O)Nc1cc2[nH]nc(NC3CCOCC3)c2cn1)c1ccccc1 [Example 327, 1-[(1R)-1-phenylethyl]-3-[3-(tetrahydro-2H-pyran-4-ylamino)-1H-pyrazolo[4,3-c]pyridin-6-yl]urea]
7.66 | CCNc1n[nH]c2cc(NC(=O)NCc3ncccc3Cl)ncc12 [Example 278, 1-[(3-chloro-pyridin-2-yl)-methyl]-3-[3-(ethylamino)-1H-pyrazolo[4,3-c]-pyridin-6-yl]urea]
9.10 | CC(C)(O)[C@@H](NC(=O)Nc1cc2[nH]nc(N3CC4CC3CO4)c2cn1)c1ccc(F)cc1 (stereo partly drawn) [Example 446, 1-[(1S)-1-(4-fluorophenyl)-2-hydroxy-2-methylpropyl]-3-[3-(2-oxa-5-azabicyclo[2.2.1]hept-5-yl)-1H-pyrazolo[4,3-c]pyridin-6-yl]urea]
8.55 | COCCNc1n[nH]c2cc(NC(=O)N[C@H](C)c3ccc(F)cc3)ncc12 [Example 374, 1-[(1R)-1-(4-fluorophenyl)ethyl]-3-{3-[(2-methoxy-ethyl)amino]-1H-pyrazolo[4,3-c]-pyridin-6-yl}urea]
9.52 | COC(=O)Nc1n[nH]c2cc(NC(=O)N[C@H]3c4ccccc4OCC[C@H]3O)ncc12 [Example 394, methyl [6-({[(4R,5S)-4-hydroxy-2,3,4,5-tetrahydro-1-benzoxepin-5-yl]-carbamoyl}amino)-1H-pyrazolo[4,3-c]pyridin-3-yl]-carbamate]
8.22 | Nc1n[nH]c2cc(NC(=O)NC3CCCC3c3ccccc3)ncc12 (centres unmarked) [Example 261, 1-(3-amino-1H-pyrazolo[4,3-c]-pyridin-6-yl)-3-(2-phenylcyclopentyl)urea]
9.10 | C[C@@H]1CN(c2n[nH]c3cc(NC(=O)N[C@@H](c4ccccc4)C(C)(C)O)ncc23)C[C@H](C)O1 [Example 436, 1-{3-[(2R,6S)-2,6-dimethylmorpholin-4-yl]-1H-pyrazolo[4,3-c]-pyridin-6-yl}-3-[(1S)-2-hydroxy-2-methyl-1-phenylpropyl]urea]
7.73 | CCNc1n[nH]c2cc(NC(=O)NC3CNc4ccccc4C3)ncc12 (centres unmarked) [Example 232, 1-[3-(ethylamino)-1H-pyrazolo[4,3-c]pyridin-6-yl]-3-(1,2,3,4-tetrahydro-quinolin-3-yl)urea]
